Laboratory results reported in ChEMBL document CHEMBL4052678, “Urotensin core mimics that modulate the biological activity of urotensin-II related peptide but not urotensin-II” (Bioorg Med Chem Lett, 2017).
The source made the active and inactive calls. The rule behind the calls is not given here. Starred links: 1 amine or outer side, 2 acyl side, 3 side chain; linkers in the order of their positions; H or OH if unused. Non-standard residues stand in square brackets, D forms with d. Residues, ends and D or L forms follow the SMILES beside them. X1 = O=C(Cn1cc(CN[*:1])nn1)[*:2]

Tests used:
Format in all cases: functional
Aorta [1] = assay: Induction of contraction in Sprague-Dawley rat aortic rings at 25 umol relative to KCl-induced contraction
Aorta [2] = assay: Inhibition of urotensin II-related peptide-induced contraction in Sprague-Dawley rat aortic rings assessed as Emax for urotensin II-related peptide at 30 umol relative to KCl-induced contraction (reference value: 113 +/- 2%)
Aorta [3] = assay: Inhibition of urotensin II-related peptide-induced contraction in Sprague-Dawley rat aortic rings assessed as Emax for urotensin II-related peptide relative to KCl-induced contraction (reference value: 8.07 +/- 0.03)
Aorta [4] = assay: Inhibition of human urotensin II-induced contraction in Sprague-Dawley rat aortic rings assessed as Emax for urotensin II relative to KCl-induced contraction (reference value: 8.59 +/- 0.08)
Aorta [5] = assay: Inhibition of human urotensin II-induced contraction in Sprague-Dawley rat aortic rings assessed as Emax for urotensin II at 30 umol relative to KCl-induced contraction (reference value: 104 +/- 4%)
Aorta [6] = assay: Induction of contraction in Sprague-Dawley rat aortic rings at 30 umol relative to KCl-induced contraction

SMILES	Activity (Aorta [1])	Emax (Aorta [2]) [%]	EC50 (Aorta [3]) [nM]	EC50 (Aorta [4]) [nM]	Emax (Aorta [5]) [%]	Activity (Aorta [6])
NCCCC[C@@H]1NC(=O)[C@H](Cc2c[nH]c3ccccc23)NC(=O)[C@H](Cc2ccccc2)NC(=O)Cn2cc(nn2)CNC(=O)[C@H](Cc2ccc(O)cc2)NC1=O (cyclo(FWKY[X1]))	Active	54	0.501	4.27	96	–
NCCCC[C@@H]1NC(=O)[C@H](Cc2c[nH]c3ccccc23)NC(=O)Cn2cc(nn2)CNC(=O)[C@H](Cc2ccc(O)cc2)NC1=O	–	90	3.02	1.35	97	Active
